Experimental data reported in article doi:10.1101/2023.05.30.542953v1 (biorxiv, 2023).

Tested on: LhCE
Assay: UV-Vis Michaelis-Menten hydrolysis assay
Type: biochemical, Lactobacillus helveticus
Conditions: 50 mM HEPES pH 8, 21 °C, 10 nM enzyme

Question: `CCOC(=O)/C=C/c1ccc(O)c(OC)c1` [ethyl ferulate] was tested. Which Km (substrate stock in 5% ethanol) did it give?
Answer: Its Km is 386 ± 46 µM.

Question: How did the Km turn out when `O=C(/C=C/c1ccc(O)c(O)c1)O[C@@H]1C[C@](O)(C(=O)O)C[C@@H](O)[C@H]1O` [chlorogenic acid] was run?
Answer: Its Km is 147 ± 41 µM.
